In US20250188085A1, “COMPOSITIONS AND METHODS FOR INHIBITION OF RAS” (THERAS, INC., priority 2022, published 2025):
Where two headings read alike, the source gives them in different places.

Legend:
[1] = target: T1, GDP-loaded KRAS4b (amino acids 1-169) G12C/C118S protein (Homo sapiens, UniProt P01116, C118S/G12C); assay: Covalent cysteine 12 modification by MALDI-TOF MS, GDP-loaded KRAS G12C; type: binding; settings: 15 minutes reaction time point
T1 construct: KRAS4b (amino acids 1-169) G12C/C118S protein; made in house
Summary of the method: (§1)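 KRAS4b 1-169 G12C/C118S loaded with GDP, GppNHp or GTP was used at 1 μM in 20 mM HEPES, 150 mM NaCl, 1 mM MgCl2, pH 7.3, and incubated with compound (5 mM DMSO stock) at room temperature in the dark. % modification at 15 min is adduct peak height over total protein peak heights by linear-mode MALDI-TOF.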

pERK in NCI-H358 cells = assay: Cell-based pERK HTRF assay; settings: 30 min incubation, read-out: pERK in NCI-H358 cell inhibition IC50
Summary of the method: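 Cells seeded at 4×10^4/well in RPMI with 10% FBS, then next day treated for 30 min with a 9-point, 3-fold series from 75 μM top concentration at 0.25% DMSO. Lysates were read for pERK by HTRF (d2/Eu cryptate antibodies) after 4–24 h at room temperature, emission at 615 nm.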

[2] = target: T2, Avi-KRAS G12C (1-169) GppNHp/RAF1 RBD-3×FLAG (52-151) (Homo sapiens, UniProt P01116, G12C); assay: Raf1 RBD-KRAS G12C-GppNHp disruption (protein:protein interaction HTRF assay); type: biochemical
T2 construct: Avi-KRAS G12C (1-169) GppNHp/RAF1 RBD-3×FLAG (52-151)
Summary of the method: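 HTRF measuring disruption of 50 nM Avi-KRAS G12C (1-169) loaded with GppNHp binding RAF1 RBD-3×FLAG (52-151), in pH 7.5 Tris buffer with 5 mM MgCl2, 0.1% BSA, 10% DMSO. KRAS preincubated with compound 1 h, then RBD 1 h, then detection reagents 1 h, all at room temperature. Compound titration 30-0.02 μM; activity expressed as percent of DMSO control.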

[3] = target: T3, GTP-loaded KRAS4b (amino acids 1-169) G12C/C118S protein (Homo sapiens, UniProt P01116, C118S/G12C); assay: Covalent cysteine 12 modification by MALDI-TOF MS, GTP-loaded KRAS G12C; type: binding; settings: 15 minutes reaction time point
T3 construct: KRAS4b (amino acids 1-169) G12C/C118S protein; made in house
Procedure: Reaction: 1 μM of GppNHp-, GTP-, or GDP-loaded KRAS4b (amino acids 1-169) G12C/C118S protein (produced in-house by Protein Expression Laboratory, FNLCR/Leidos Biomed) in 20 mM 4-(2-hydroxyethyl)-1-piperazineethanesulfonic acid (HEPES) buffer containing 150 mM NaCl, 1 mM MgCl2, pH 7.3 was prepared freshly before assay. Ten-μL aliquots of protein were dispensed onto low volume 384-well plate, then 375 nL DMSO, and 25 nL of tested compounds from 5 mM DMSO stocks were added to appropriate wells using ECHO 555 acoustic liquid handler (Labcyte Inc.). For each reaction/assay, three blanks were prepared by mixing 10 μL of protein solution with 400 nL DMSO. The contents of the wells were carefully mixed by aspiration, and then each plate was sealed with an adhesive cover, centrifuged at 2000 g for 1 minute, and kept in the dark at room temperature until 5 min, 15 min, 30 min, or 2 h collections.
Target pretreatment: Before each assay MALDI target (Bruker MPT 384 ground steel BC) was pre-treated by pipetting on each spot 0.75 μL of saturated sinapinic acid in acetonitrile (ACN).
Sample preparation: At collection time point, 2 μL of reaction mixtures were pipetted out into 20 μL MALDI matrix solution (saturated solution of sinapinic acid in 1:1 ACN:water solution containing 0.75% trifluoroacetic acid (TFA)) deposited on 384 well polypropylene plate. Resulting solution was mixed by aspiration, centrifuged at 2000 g for 1 minute, then 1 μL aliquots were dispensed on pre-treated MALDI target using Beckman Coulter Biomek FXP 96/384-Span-8 Laboratory Automation Workstation. Finally, the MALDI target was dried under mild vacuum to produce spots with fine crystalline structure.
Measurements: MALDI-TOF measurements were performed on a Bruker Daltonics rapiflex Tissuetyper TOF-TOF mass spectrometer using linear mode and mass range from 18.6 to 21.6 kDa. Detector gain was set to 3.3× (483 V), sample rate to 5 GS/s, real time smoothing to medium (175 MHz), laser smart beam pattern was set to: “MS Thin Layer M5”, and the laser frequency was 10000 Hz. Spectra were automatically collected using custom Auto Xecute method. Laser power was auto adjusted using fuzzy control. The peak selection range was set to be between 19000 and 21500 Da. Peak evaluation uses half width parameter set to be smaller than 40 Da for processed spectrograms (centroid peak detection; smoothed by SavitzkyGolay algorithm using 7 m/z width and 2 cycles; baseline was subtracted using median algorithm with flatness 1 and median level 0.01). Fuzzy control used Proteins/Oligonucleotides protocol with minimum half width 1/10 times above threshold. Up to 40000 satisfactory shots were collected in 10000 shot steps. Dynamic termination was implemented to finish data collection when peak signal/noise ratio was reaching value of 50.
Spectra processing: Spectra were smoothed by SavitzkyGolay algorithm using 7 m/z width and three cycles. Centroid peak detection algorithm was used with signal to noise threshold set to 6, relative intensity threshold 4%, peak width 10 m/z and median baseline subtraction using flatness of 1 and median level of 0.01. Peak intensity and area under the peak were evaluated and recorded for all peaks between 19,300 Da and 21,550 Da.
Calculation of percent modification: Percent modification was calculated as a ratio of peak height for protein modified by compound to sum of peak height of remaining protein plus peak height for protein modified by compound. If multiple modifications were observed each was calculated as a ratio of peak height for given modification versus sum of peak heights for all observed protein species. Data reported in Table 5 are from 15 minutes reaction time point.

[4] = target: T4, GppNHp-loaded KRAS4b (amino acids 1-169) G12C/C118S protein (Homo sapiens, UniProt P01116, C118S/G12C); assay: Covalent cysteine 12 modification by MALDI-TOF MS, GppNHp-loaded KRAS G12C; type: binding; settings: 15 minutes reaction time point
T4 construct: KRAS4b (amino acids 1-169) G12C/C118S protein; made in house
Summary of the method: as §1

SMILES | GDP-KRAS G12C percent of modification [1] | IC50 (pERK in NCI-H358 cells; Homo sapiens, NCI-H358, 0.5 h) [µM] | IC50 [2] [µM] | GTP-KRAS G12C percent of modification [3] | GppNHp-KRAS G12C percent of modification [4] | IC50 (pERK in NCI-H358 cells) [µM]
C=CC(=O)N1CC[C@@H](Oc2nc(OC[C@@]34CCCN3C[C@H](F)C4)nc3c(F)c(-c4ccc(F)c5sc(N)c(C#N)c45)c(Cl)cc23)[C@@H]1COC [Compound 126] | A (percent of modification ≥70%) | 0.1 to 1 | 0.5 to 5 | D (percent of modification <10%) | D (percent of modification <10%) | –
C=CC(=O)N1CC[C@@H](Oc2nc(OCC34CCCN3CCC4)nc3c(F)c(-c4ccc(F)c5sc(N)c(C#N)c45)c(C(F)(F)F)cc23)[C@H]1C [Compound 100] | B (50≤percent of modification <70%) | 0.1 to 1 | ≤ 0.5 | C (10%≤modification <50%) | C (10%≤modification <50%) | –
C=CC(=O)N1CC[C@@H](Oc2nc(OC[C@@]34CCCN3C[C@H](F)C4)nc3c(F)c(-c4ccc(F)c5sc(N)c(C#N)c45)c(C(F)(F)F)cc23)[C@H]1COC (atropisomer, axis not shown) [Compound 96] | D (percent of modification <10%) | – | 5 to 20 | D (percent of modification <10%) | D (percent of modification <10%) | 0.1 to 1
C=CC(=O)N1C[C@@H](F)[C@@H](Oc2nc(OC[C@@]34CCCN3C[C@H](F)C4)nc3c(F)c(-c4ccc(F)c5sc(N)c(C#N)c45)ccc23)C1 [Compound 80] | A (percent of modification ≥70%) | ≤ 0.1 | ≤ 0.5 | A (percent of modification ≥70%) | A (percent of modification ≥70%) | –
C=CC(=O)N1CC[C@@H](Oc2nc(OC[C@@]34CCCN3C[C@H](F)C4)nc3c(Cl)c(-c4ccc(F)c5sc(N)c(C#N)c45)c(C#N)cc23)[C@H]1C [Compound 105] | B (50≤percent of modification <70%) | ≤ 0.1 | ≤ 0.5 | B (50≤percent of modification <70%) | A (percent of modification ≥70%) | –
C=CC(=O)N1CC[C@@H](Oc2nc(OC[C@@]34CCCN3C[C@H](F)C4)nc3c(F)c(-c4ccc(F)c5sc(N)c(C#N)c45)c(F)cc23)C1 [Compound 52] | D (percent of modification <10%) | > 1 | 5 to 20 | D (percent of modification <10%) | D (percent of modification <10%) | –
C=CC(=O)N1C[C@H](Oc2nc(OC[C@@]34CCCN3C[C@H](F)C4)nc3c(F)c(-c4ccc(F)c5sc(N)c(C#N)c45)ncc23)[C@@H](F)C1 [Compound 75] | A (percent of modification ≥70%) | ≤ 0.1 | ≤ 0.5 | A (percent of modification ≥70%) | A (percent of modification ≥70%) | –
